Assay [1] deals with T1, h-EP2 (Homo sapiens, UniProt P43116).
T1 construct: expressed in transfected cells; host or cells: HEK293-EBNA
Nature of the assay: Prostaglandin EP2 receptor binding assay (3H-PGE2, SPA). The conditions noted are these: EP2 receptor membranes, 20 nM 3H-PGE2, pH 6.0, 2 hrs at room temperature. The method, then:
Compounds of the invention were tested in an EP2 receptor binding assay of the following protocol. As referred to herein, the term a “standard EP2 receptor binding assay” designates the following protocol which allows the determination of the affinity of the test compounds for the EP2 receptor

For assay [2], the target named is T1, h-EP2. Nature of the assay: EP2 total cAMP assay. The conditions noted are these: HEK293-EBNA cells transfected with pCEP4-hEP2, 1 hour at 37° C. It counts as cell-based. The method, then: Compounds of the invention were tested in a total cAMP assay as follows. HEK293-EBNA cells transfected with pCEP4-hEP2 receptors were seeded in 96 well opaque plate (Costar #3917) at 4×10^4 cells per well in 100 μl of culture medium (D-MEM/F12 supplemented with 10% FBS, […] L-glutamine, and 250 μg/ml of hygromycin; all from GibcoBRL) and incubated at 37° C. After overnight incubation, the medium was removed from each well and replaced with 45 μl of assay medium consisted of phenol red free D-MEM/F-12, 0.1% BSA (GibcoBRL) and 0.1 mM3-isobutyl-1-methyl-xanthine (Sigma). After 15 minutes of incubation at 37° C., 16-16-dimethyl PGE-2 or compounds at desired concentrations in 20 μl of assay medium were added to cells and further incubated at 37° C. for 1 hour. Total cAMP (intra- and extra-cellular) was measured by using a cAMP-screen ELISA System (Tropix, #CS1000).

For assay [3], the target named is h-EP4 (Homo sapiens, UniProt P35408). Nature of the assay: EP4 receptor binding assay (3H-PGE2, SPA). The conditions noted are these: EP4 receptor membranes, 20 nM 3H-PGE2, pH 6.0, 2 hrs at room temperature. The method, then: Compounds of the invention were tested in an EP4 receptor binding assay of the following protocol which allows the determination of the affinity of the test compounds for the EP4 receptor.

For orientation: Ki means the dissociation constant of the complex between target and ligand, obtained from inhibition or displacement. Read a high Ki as lower affinity. As a reminder, the EC50 is the concentration needed to bring the measured effect to its halfway point. The low end stands for higher potency in that assay, the high end for lower potency in that assay.

T1 sequence (P43116 whole entry): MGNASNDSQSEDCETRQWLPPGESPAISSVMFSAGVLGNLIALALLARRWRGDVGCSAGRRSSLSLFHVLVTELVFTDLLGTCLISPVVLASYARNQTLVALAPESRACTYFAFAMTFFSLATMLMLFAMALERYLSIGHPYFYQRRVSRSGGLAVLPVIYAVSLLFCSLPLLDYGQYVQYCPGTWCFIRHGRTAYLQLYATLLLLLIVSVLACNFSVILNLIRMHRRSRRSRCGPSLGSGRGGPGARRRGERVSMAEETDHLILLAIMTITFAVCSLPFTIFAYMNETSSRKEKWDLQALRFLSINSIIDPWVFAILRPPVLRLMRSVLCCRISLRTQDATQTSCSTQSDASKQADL
h-EP4, sequence (P35408 whole entry): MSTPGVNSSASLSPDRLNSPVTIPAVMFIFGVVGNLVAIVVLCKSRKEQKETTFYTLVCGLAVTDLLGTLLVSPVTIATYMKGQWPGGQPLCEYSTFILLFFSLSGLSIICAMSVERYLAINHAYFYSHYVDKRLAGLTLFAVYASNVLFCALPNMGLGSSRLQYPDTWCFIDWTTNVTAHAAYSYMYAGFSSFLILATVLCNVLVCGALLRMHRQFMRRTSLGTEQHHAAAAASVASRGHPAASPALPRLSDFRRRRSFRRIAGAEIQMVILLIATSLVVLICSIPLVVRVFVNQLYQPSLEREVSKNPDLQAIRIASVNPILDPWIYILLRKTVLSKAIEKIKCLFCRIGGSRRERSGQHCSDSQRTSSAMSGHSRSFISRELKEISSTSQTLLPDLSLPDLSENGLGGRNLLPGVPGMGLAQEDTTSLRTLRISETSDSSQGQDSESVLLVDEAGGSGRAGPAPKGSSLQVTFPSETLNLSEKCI

For `CCCCC[C@@H](O)CCCN1CC[C@@H](Cl)C1C/C=C\CCCC(=O)O` (stereo in doubt) [Example 1, (5Z)7-[(2R,3R)-3-Chloro-1-(4-hydroxynonyl)-pyrrolidin-2-yl]-hept-5-enoic acid], the affinity in assay [1], expressed as Ki, was 5.6 µM. Further, the concentration giving a half-maximal response (EC50) in assay [2] was found to be 0.048 µM.

For the molecule `CCCCC1(C(O)CCCN2CC[C@@H](Cl)[C@@H]2CCc2ccc(C(=O)O)cc2)CCC1` (stereo in doubt) [Example 11, 4-(2-{1-[4-(1-butylcyclobutyl)-4-hydroxybutyl]-3-chloropyrrolidin-2-yl}ethyl)benzoic acid], the Ki in assay [1] was found to be 3.5 µM. A half-maximal response in assay [2] (EC50) required 0.25 µM.

Consider `Cc1cccc(CC(O)CCN2CCC(=O)[C@@H]2C/C=C\CCCC(=O)O)c1` (stereo partly drawn) [Example 13, (5Z)-7-{(2S)-1-[3-hydroxy-4-(3-methylphenyl)butyl]-3-oxopyrrolidin-2-yl}hept-5-enoic acid], for which the Ki was 10 µM in assay [1] and 0.005 µM in assay [3]. In assay [2], this molecule had an EC50 of 0.37 µM.

In the case of “(5Z)-7-{(trans-2,3)-3-Chloro-1-[(4S and 4 R)-hydroxy-4-(1-butylcyclobutyl)butyl]pyrrolidin-2-yl}hept-5-enoic acid [Example 15]”, the inhibitory constant (Ki) in assay [1] stood at 11 µM; in assay [3], 0.156 µM. Besides, in assay [2], the half-maximal effective concentration (EC50) came to 8.5 µM.
